Test results reported in the supplement of paper PMC7661543.
± gives the standard deviation of the averaged measurements.

Legend:
Test in all cases: relative cell number vs DMSO control (72 h) (% of DMSO); higher = less growth inhibition (more cells)
Settings in all cases: sgRNA knockout: sgNT
BT-20 = test system: BT-20
Procedure: (§1)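 QMAP-Seq: a pool of 5 breast cancer cell lines (ZR-75-1, SKBR3, HCC-38, MDA-MB-231, BT-20), each carrying 12 doxycycline-inducible Cas9 sgRNA perturbations (11 knockouts plus non-targeting sgNT), was treated with compounds for 72 h at four 10-fold doses (10 nM-10 uM or 1 nM-1 uM range). Barcodes were amplified and sequenced, and cell number was interpolated from 293T spike-in standard curves. The result is expressed as % of the median of DMSO wells. Two biological replicates.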

HCC-38 = test system: HCC-38
Procedure: as §1

MDA-MB-231 = test system: MDA-MB-231
Procedure: as §1

SKBR3 = test system: SKBR3
Procedure: as §1

ZR-75-1 = test system: ZR-75-1
Procedure: as §1

Row | SMILES | relative cell number (BT-20; 10 nM) | relative cell number (BT-20; 100 nM) | relative cell number (BT-20; 1000 nM) | relative cell number (BT-20; 10000 nM) | relative cell number (HCC-38; 10 nM) | relative cell number (HCC-38; 100 nM) | relative cell number (HCC-38; 1000 nM) | relative cell number (HCC-38; 10000 nM) | relative cell number (MDA-MB-231; 10 nM) | relative cell number (MDA-MB-231; 100 nM) | relative cell number (MDA-MB-231; 1000 nM) | relative cell number (MDA-MB-231; 10000 nM) | relative cell number (SKBR3; 10 nM) | relative cell number (SKBR3; 100 nM) | relative cell number (SKBR3; 1000 nM) | relative cell number (SKBR3; 10000 nM) | relative cell number (ZR-75-1; 10 nM) | relative cell number (ZR-75-1; 100 nM) | relative cell number (ZR-75-1; 1000 nM) | relative cell number (ZR-75-1; 10000 nM)
1 | Cc1cc2c(C(C)C)c(O)c(O)c(C=O)c2c(O)c1-c1c(C)cc2c(C(C)C)c(O)c(O)c(C=O)c2c1O [Gossypol] | 96.2 ± 1.7 | 80.1 ± 8.4 | 113 ± 39 | 44.9 ± 2 | 96.4 ± 16 | 91.6 ± 12 | 107.2 ± 0.47 | 27 ± 1.4 | 125 ± 38 | 87.2 ± 6.4 | 103 ± 33 | 22.7 ± 7.3 | 101.3 ± 0.15 | 94.3 ± 8.1 | 103 ± 7.4 | 24.6 ± 2.8 | 129 ± 19 | 96 ± 13 | 106 ± 54 | 26.9 ± 14
2 | COc1cc2c(cc1-c1c(C)noc1C)ncc1[nH]c(=O)n([C@H](C)c3ccccn3)c12 [IBET151] | 82.5 ± 2.4 | 90.5 ± 39 | 72.5 ± 0.91 | 49.4 ± 3.8 | 85.1 ± 6.5 | 82.8 ± 13 | 60.2 ± 2.5 | 53.6 ± 3.3 | 88.1 ± 9 | 72.1 ± 3.6 | 42.4 ± 2 | 19 ± 15 | 64.9 ± 9 | 88.5 ± 6.6 | 47.8 ± 1.4 | 31.9 ± 9.4 | 65.6 ± 36 | 104 ± 28 | 49 ± 4.5 | 37.5 ± 0.4
3 | O=P1(NCCCl)OCCCN1CCCl (stereo not given) [Ifosfamide] | 71.6 ± 2.8 | 89.6 ± 16 | 109.5 ± 0.23 | 84.7 ± 16 | 107 ± 4.6 | 96 ± 20 | 105 ± 14 | 100 ± 11 | 75.5 ± 8 | 95.4 ± 25 | 103 ± 13 | 95.5 ± 5.4 | 74.2 ± 5.4 | 74.6 ± 24 | 82.8 ± 25 | 71.9 ± 38 | 69.6 ± 31 | 107 ± 35 | 79.1 ± 40 | 85.6 ± 8.3
4 | O=C(/C=C/c1ccc(O)cc1)c1ccc(O)cc1O [Isoliquiritigenin] | 113 ± 12 | 95.4 ± 25 | 80.4 ± 11 | 94.9 ± 1.9 | 96.1 ± 6.6 | 92.5 ± 6.5 | 96.7 ± 11 | 86.5 ± 9.8 | 87.3 ± 22 | 75.5 ± 23 | 87 ± 3 | 88 ± 26 | 83.1 ± 20 | 109 ± 30 | 82.7 ± 16 | 68.9 ± 8.6 | 120 ± 22 | 88 ± 10 | 99.8 ± 30 | 83.9 ± 5.5
5 | CCn1c(=O)c2c(nc(/C=C/c3ccc(OC)c(OC)c3)n2C)n(CC)c1=O [Istradefylline] | 109 ± 12 | 104 ± 5.7 | 94.8 ± 12 | 106 ± 8.2 | 88.28 ± 0.69 | 99.3 ± 24 | 93.3 ± 8.3 | 106 ± 2.4 | 86 ± 1.8 | 146 ± 30 | 93.8 ± 5.8 | 105 ± 43 | 80.5 ± 18 | 84.2 ± 5.3 | 99.5 ± 23 | 112 ± 15 | 128 ± 37 | 114 ± 3.4 | 110 ± 7.6 | 94.9 ± 19
6 | O=C(c1ccc(/C=C/c2n[nH]c3ccccc23)cc1)N1CCNCC1 [KW2449] | 109 ± 15 | 89.6 ± 4.7 | 113 ± 20 | 79.4 ± 13 | 88 ± 8 | 87.64 ± 0.15 | 81 ± 5.1 | 42.2 ± 5.9 | 103 ± 14 | 116 ± 35 | 78.79 ± 0.17 | 35.4 ± 8.4 | 69 ± 16 | 72.7 ± 10 | 104 ± 5.3 | 73.1 ± 49 | 75.6 ± 8.1 | 104 ± 3.9 | 48.8 ± 12 | 56 ± 10
7 | O=C(Cc1ccc(-c2ccc(OCCN3CCOCC3)cc2)cn1)NCc1ccccc1 [KX2391] | 127 ± 31 | 36.5 ± 7.8 | 33.3 ± 7 | 31.8 ± 10 | 139 ± 16 | 24.4 ± 0.93 | 24.1 ± 1.9 | 30.8 ± 3.4 | 108 ± 56 | 30.3 ± 9.2 | 18 ± 2.3 | 19.78 ± 0.15 | 91.5 ± 17 | 17.8 ± 2 | 8.71 ± 3 | 10.3 ± 2.5 | 132 ± 43 | 24.8 ± 2.5 | 24.6 ± 4.9 | 17.8 ± 8.4
8 | COc1cc(C(=O)N2CCC(N3CCN(C)CC3)CC2)ccc1Nc1ncc2c(n1)N(C)c1ccccc1C(=O)N2C [LRRK2IN1] | 116 ± 14 | 93.7 ± 7.9 | 93.8 ± 15 | 38.2 ± 4 | 100 ± 8.9 | 84.8 ± 7 | 67.3 ± 4 | 42.4 ± 1.1 | 123 ± 3.5 | 96.6 ± 1.3 | 44.2 ± 7.9 | 16 ± 2.8 | 111 ± 44 | 70.9 ± 6 | 71 ± 31 | 32.9 ± 13 | 106 ± 7 | 152 ± 59 | 69.4 ± 3 | 19.1 ± 5.2
9 | CS(=O)(=O)CCNCc1ccc(-c2ccc3ncnc(Nc4ccc(OCc5cccc(F)c5)c(Cl)c4)c3c2)o1 [Lapatinib] | 96.3 ± 16 | 84.7 ± 12 | 78.7 ± 9.5 | 77 ± 4.7 | 97.5 ± 7 | 87 ± 6.9 | 89.7 ± 7.5 | 60.2 ± 1.2 | 120 ± 15 | 90 ± 36 | 83.6 ± 3 | 38.2 ± 8.8 | 77.6 ± 11 | 73.9 ± 0.55 | 64.9 ± 19 | 16.3 ± 2.1 | 112 ± 32 | 63.6 ± 13 | 86.8 ± 17 | 33.4 ± 10
10 | COc1cc2nccc(Oc3ccc(NC(=O)NC4CC4)c(Cl)c3)c2cc1C(N)=O [Lenvatinib] | 94.9 ± 21 | 97.5 ± 14 | 128 ± 7.1 | 93.5 ± 36 | 95.3 ± 5.8 | 96.8 ± 4.3 | 101 ± 33 | 68.4 ± 10 | 94.7 ± 34 | 122 ± 7.1 | 114 ± 15 | 86.5 ± 25 | 111 ± 9.8 | 92.6 ± 8.6 | 85.9 ± 42 | 94.1 ± 35 | 84.1 ± 11 | 92.2 ± 22 | 108 ± 20 | 90.8 ± 15
